The values that follow come from patent US9155301B2, “Antimicrobial agent comprising a cysteine component covalently bound to a substrate in particular by binding through an S-S bridge via a spacer molecule” (priority 2005, dated 2015).

Molecules are shown by their SMILES.

This test concerns Staphylococcus aureus (B5381, a clinical isolate). The test is described as follows: Inhibition of bacterial growth in culture incubated with modified surface. The class given is cell-based. The note with it: Example 11; dissolved in culture at 50 μg/ml and 5 μg/ml; initial culture exceeding 4 million cfu/ml. The method, then: The following analysis was performed with three (3) different strains of bacteria, but the applications are not limited to these: A clinical isolate (from a patient with sepsis) of Gram positive bacterium Staphylococcus aureus, (a clinical isolate B5381), the Gram positive bacterium Bacillus megaterium (strain Bm11), the Gram negative bacterium Escherichia coli (strain D21). This selection of bacteria comprises both Gram positive and Gram negative bacteria including bacteria that are of significant problems clinically.
[…] LB medium (Luria Bertani broth) has been inoculated with specific bacterial strain, but not limited to this medium. The strain selected has been plated on an agar plate of selected medium the day before, and permitted to grow over night at 37° C. Several colonies were scraped from the plate and used to inoculate the medium which subsequently was allowed to grow up to an optical density of 0.4. […] The number of bacteria was determined by plating serial dilutions and counting colonies in the appropriate dilutions. […]
Subsequent to incubation (in the presently described case: 2.5 h), the disc was removed from each tube using a sterile pair of tweezers. The culture in which the disc had been incubated was in parallel transferred to a separate sterile eppendorf tube, and its titer was determined as described. […]

Take `N[C@@H](CS)C(=O)O` [dissolved L-cysteine, L-cysteine]: the “inhibition of growth in culture with dissolved substance” value is “No inhibition”.
